{"source": "patent US20020028255A1", "about": "“Pesticide treatment” (priority 1998, published 2002)", "key": {"[1]": {"experiment": "Kinetics of decomposition of the dione in water in the presence of chlorine (ppm)", "format": "physicochemical", "text": "(A) The kinetics of the decomposition of 2-cyano-3-cyclopropyl-1-(2-methylsulphonyl-4-trifluoromethylphenyl)propan-1,3-dione in water was studied. The following Table summarizes the results obtained at pH7 or pH9 in the presence of 0.1 or 0.5 ppm of chlorine. The percentages given are of degradation of the dione to the corresponding benzoic acid, 2-methylsulphonyl-4-trifluoromethyl-benzoic acid."}, "[2]": {"experiment": "Vials of dione solution in water (500 ppt) treated with water containing chlorine (ppb)", "format": "physicochemical", "conditions": "dione 500 ppt, ambient temperature", "protocol": "(B) Vials containing 1 ml of solutions in water of the dione used in (A) (at a concentration of 500 ppt) were treated at ambient temperature with 1 ml of water containing 0.1 or 0.5 ppb concentrations of chlorine."}, "[3]": {"experiment": "Decomposition of DKN in bleach, followed by TLC", "format": "physicochemical", "conditions": "1 g in 25 ml bleach (14 to 15% chlorine), ambient temperature, after 30 minutes", "protocol": "2-Cyano-3-cyclopropyl-1-2-methylsulphonyl-4-trifluoromethylphenyl)propan-1,3-dione(DKN:1 g) was added to 25 ml of bleach (containing 14 to 15% chlorine). The mixture was stirred at ambient temperature. After 3 minutes a clear solution formed. […] The main product was the corresponding benzoic acid."}, "[4]": {"experiment": "Cleaning of a contaminated 1000 l tank with sodium hypochlorite solution", "format": "physicochemical", "conditions": "tank wet with 0.02% (w/w) suspension; 10 l of 0.01% (w/w) sodium hypochlorite, one hour", "text": "A 1000 l container or tank was used to prepare a suspension of dione pesticide (2-cyano-3-cyclopropyl- 1-(2-methylsulphonyl-4-trifluoromethylphenyl)propan-1,3-dione). The suspension was used to destroy the weeds in a crop growing area. The container was then still wet with aqueous suspension of 0.02% (w/w) of the pesticide.\n10 l of 0.01% (w/w) solution of sodium hypochlorite is poured into the tank and stirred (so as to contact the whole inner surface of the container) and left for one hour.\nExample 3 is repeated except that the pesticide is an isoxazole (5-cyclopropyl-4-(2-methylsulphonyl-4-trifluoromethylbenzoyl)isoxazole;IFT) and the pH of the hypochlorite solution is 8.5 (adjusted using NaOH)."}, "[5]": {"test_system": "Maize (Pioneer 3394) seeds", "experiment": "Damage (bleaching of the shoot) to maize seeds bathed in herbicide solutions, control vs hypochlorite-sterilized seed", "format": "in vivo", "conditions": "for damage to maize: low concentration", "protocol": "Maize (Pioneer 3394) seeds were placed in a solution of 1% (w/w) sodium hypochlorite for 30 seconds, then rinsed thoroughly for 5 minutes with sodium bicarbonate solution (5% w/w).\nReplicates of 20 seeds from each treatment were placed in petri dishes and bathed in 25 ml of the following solutions for 24 hours (covered and incubated at 25° C. in a growth cabinet).\nAfter 24 hours the seeds were removed from the bathing solutions, rinsed thoroughly in water and planted (in green light- as some of the seeds had started to produce a coleoptile which is sensitive to daylight). Seeds were planted in duplicate in 10 cm×10 cm pots containing non-sterile loam and were overhead watered 3 times daily.\nAssessments were made 7 and 14 DAT (days after treatment)."}, "[6]": {"conditions": "control seed, 1.0 μg ml^−1, bathed 24 hours"}, "[7]": {"conditions": "control seed, 10.0 μg ml^−1, bathed 24 hours"}, "[8]": {"conditions": "sterilized seed (1% sodium hypochlorite), 1.0 μg ml^−1, bathed 24 hours"}, "[9]": {"conditions": "sterilized seed (1% sodium hypochlorite), 10.0 μg ml^−1, bathed 24 hours"}}}
{"smiles": "CS(=O)(=O)c1cc(C(F)(F)F)ccc1C(=O)C(C#N)C(=O)C1CC1", "note": "(stereo not drawn) [DKN]", "values": [{"measurement": "degradation of the dione to the corresponding benzoic acid", "setting": "[1]; pH 7, Cl2 0.1 ppm, 15 min", "value": 100, "unit": "%"}, {"measurement": "degradation of the dione to the corresponding benzoic acid", "setting": "[1]; pH 7, Cl2 0.5 ppm, 15 min", "value": 100, "unit": "%"}, {"measurement": "degradation of the dione to the corresponding benzoic acid", "setting": "[1]; pH 9, Cl2 0.1 ppm, 15 min", "value": 50, "unit": "%"}, {"measurement": "degradation of the dione to the corresponding benzoic acid", "setting": "[1]; pH 9, Cl2 0.1 ppm, 60 min", "value": 100, "unit": "%"}, {"measurement": "degradation of the dione to the corresponding benzoic acid", "setting": "[1]; pH 9, Cl2 0.5 ppm, 15 min", "value": 100, "unit": "%"}, {"measurement": "degradation of the dione", "setting": "[2]; pH 5, Cl2 0.1 ppb, 15 min", "value": 100, "unit": "%"}, {"measurement": "degradation of the dione", "setting": "[2]; pH 5, Cl2 0.5 ppb, 15 min", "value": 100, "unit": "%"}, {"measurement": "degradation of the dione", "setting": "[2]; pH 7, Cl2 0.1 ppb, 15 min", "value": 100, "unit": "%"}, {"measurement": "degradation of the dione", "setting": "[2]; pH 7, Cl2 0.5 ppb, 15 min", "value": 100, "unit": "%"}, {"measurement": "degradation of the dione", "setting": "[2]; pH 9, Cl2 0.1 ppb, 60 min", "value": ">90", "unit": "%"}, {"measurement": "degradation of the dione", "setting": "[2]; pH 9, Cl2 0.5 ppb, 15 min", "value": 100, "unit": "%"}, {"measurement": "DKN remaining by thin layer chromatography", "setting": "[3]", "value": "no DKN was detected"}, {"measurement": "disappearance of pesticide from the tank", "setting": "[4]", "value": "All of the dione pesticide disappeared"}, {"measurement": "% Damage (bleaching of the shoot)", "setting": "[5]; [6]", "value": 0, "unit": "%"}, {"measurement": "% Damage (bleaching of the shoot)", "setting": "[5]; [7]", "value": 0, "unit": "%"}, {"measurement": "% Damage (bleaching of the shoot)", "setting": "[5]; control seed, 100.0 μg ml^−1, bathed 24 hours", "value": 87, "unit": "%"}, {"measurement": "damage to maize", "setting": "[5]; 1 μg ml^−1", "value": "No damage"}, {"measurement": "% Damage (bleaching of the shoot)", "setting": "[5]; [8]", "value": 0, "unit": "%"}, {"measurement": "% Damage (bleaching of the shoot)", "setting": "[5]; [9]", "value": 0, "unit": "%"}, {"measurement": "% Damage (bleaching of the shoot)", "setting": "[5]; sterilized seed (1% sodium hypochlorite), 100.0 μg ml^−1, bathed 24 hours", "value": 11, "unit": "%"}]}
{"smiles": "CS(=O)(=O)c1cc(C(F)(F)F)ccc1C(=O)c1cnoc1C1CC1", "note": "[IFT, 5-cyclopropyl-4-(2-methylsulphonyl-4-trifluoromethylbenzoyl)isoxazole]", "values": [{"measurement": "% Damage (bleaching of the shoot)", "setting": "[5]; control seed, 0.1 μg ml^−1, bathed 24 hours", "value": 0, "unit": "%"}, {"measurement": "% Damage (bleaching of the shoot)", "setting": "[5]; [6]", "value": 20, "unit": "%"}, {"measurement": "% Damage (bleaching of the shoot)", "setting": "[5]; [7]", "value": 98, "unit": "%"}, {"measurement": "damage to maize", "setting": "[5]; 0.1 μg ml^−1", "value": "No damage"}, {"measurement": "% Damage (bleaching of the shoot)", "setting": "[5]; sterilized seed (1% sodium hypochlorite), 0.1 μg ml^−1, bathed 24 hours", "value": 0, "unit": "%"}, {"measurement": "% Damage (bleaching of the shoot)", "setting": "[5]; [8]", "value": 13, "unit": "%"}, {"measurement": "% Damage (bleaching of the shoot)", "setting": "[5]; [9]", "value": 100, "unit": "%"}]}
